The values below come from PubChem BioAssay AID1919002 (Molecular Pharmacology Branch, DTP, NCI, 2023).

The assay deals with 743489-274-T-PDC complex spheroid growth. Nature of the assay: Anticancer human tumor 743489-274-T-PDC patient-derived renal cell carcinoma cell line growth inhibition [AhR]. The settings on record: for viability, T/C: stronger effect = lower value. A digest of the protocol: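 Spheroids combined tumor cells with HUVEC endothelial cells and human MSCs as stroma. AhR antagonists were paired with standard or investigational drugs, each dosed in half-log steps down from near clinical Cmax, or from 10 microM where Cmax was unknown.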

Where [1] appears, read: curve of first compound, second compound 0.1 µM.
The mark [2] stands for this setting: curve of first compound, second compound 0.316 µM.
Where [3] appears, read: curve of first compound, second compound 1 µM.
Setting [4] is: curve of first compound, second compound 3.16 µM.
Setting [5] is: curve of first compound, second compound 10 µM.

Values joined by “and” are separate entries in the source; they are usually repeats but may differ in a detail not shown here. Identical values can stand only once.
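Further: spheroids exposed to agents for 7 days before readout.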
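Wherever viability, T/C is given: 100% = DMSO vehicle control wells.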

As usually defined, the viability, T/C is the ratio of treated to control. As a reminder, the IC50 is the midpoint of a concentration-inhibition curve. As to `CC(C)c1c(-c2ccccc2)nc2c(C#N)c[nH]n2c1=O`, the viability, T/C reads like this: (compound 0.0316 µM) 110% and 112% and 107%; (compound 0.1 µM) 110% and 105% and 109%; (compound 0.316 µM) 101% (2×) and 103%; (compound 1 µM) 109% and 104% and 112%; (compound 3.16 µM) 107% and 106% and 111%; (compound 10 µM) 101% and 107% and 102%. Also, where the note is “curve of compound”, the IC50 is > 10 µM.
Regarding `Nc1ncn(C2CC(O)C(CO)S2)c(=O)n1` (stereo not given) + Cc1ccccc1N=Nc1ccc(NC(=O)c2ccnn2C)c(C)c1, the IC50 reads like this: under setting [1], > 0.3 µM; under setting [2], > 0.3 µM; under setting [3], > 0.3 µM; under setting [4], > 0.3 µM; under setting [5], > 0.3 µM. Besides, the viability, T/C is, setting by setting: (second compound 0.1 µM, first compound 0.000949 µM) 102%; (second compound 0.1 µM, first compound 0.003 µM) 87.6%; (second compound 0.1 µM, first compound 0.00949 µM) 82.9%; (second compound 0.1 µM, first compound 0.03 µM) 71.4%; (second compound 0.1 µM, first compound 0.0949 µM) 85.5%; (second compound 0.1 µM, first compound 0.3 µM) 75.5%. Also, the viability, T/C (second compound 0.316 µM, first compound 0.000949 µM) was 85.5%; the viability, T/C (second compound 0.316 µM, first compound 0.003 µM) was 81.7%; the viability, T/C (second compound 0.316 µM, first compound 0.00949 µM) was 80.4%; the viability, T/C (second compound 0.316 µM, first compound 0.03 µM) is 81.7%; the viability, T/C (second compound 0.316 µM, first compound 0.0949 µM) was 87.2%; the viability, T/C (second compound 0.316 µM, first compound 0.3 µM) is 74.7%. Besides, the viability, T/C was 85.7% (second compound 1 µM, first compound 0.000949 µM); 84.4% (second compound 1 µM, first compound 0.003 µM); 86.3% (second compound 1 µM, first compound 0.00949 µM); 78.3% (second compound 1 µM, first compound 0.03 µM); 80.4% (second compound 1 µM, first compound 0.0949 µM); 85.4% (second compound 1 µM, first compound 0.3 µM). For the same molecule, the viability, T/C is 83.4% (second compound 3.16 µM, first compound 0.000949 µM); 83.2% (second compound 3.16 µM, first compound 0.003 µM); 83.1% (second compound 3.16 µM, first compound 0.00949 µM); 87% (second compound 3.16 µM, first compound 0.03 µM); 82.4% (second compound 3.16 µM, first compound 0.0949 µM); 79.3% (second compound 3.16 µM, first compound 0.3 µM). Also, the viability, T/C is 76% (second compound 10 µM, first compound 0.000949 µM); 69.9% (second compound 10 µM, first compound 0.003 µM); 92.1% (second compound 10 µM, first compound 0.00949 µM); 81.2% (second compound 10 µM, first compound 0.03 µM); 83.3% (second compound 10 µM, first compound 0.0949 µM); 76.5% (second compound 10 µM, first compound 0.3 µM).
Regarding `Nc1ncn(C2CC(O)C(CO)O2)c(=O)n1` (stereo not given), the viability, T/C was 94.8% and 98.8% and 101% (compound 0.00316 µM); 112% and 106% (2×) (compound 0.01 µM); 102% and 106% and 105% (compound 0.0316 µM); 90.8% and 93.7% and 102% (compound 0.1 µM); 100% and 96.7% and 104% (compound 0.316 µM); 94% and 93.5% (2×) (compound 1 µM). The IC50 (curve of compound) is > 1 µM.
Turning to `CC1(C)CCC(CN2CCN(c3ccc(C(=O)NS(=O)(=O)c4ccc(NCC5CCOCC5)c([N+](=O)[O-])c4)c(Oc4cnc5[nH]ccc5c4)c3)CC2)=C(c2ccc(Cl)cc2)C1`, the viability, T/C reads like this: (compound 0.0316 µM) 109% and 96.8% and 101%; (compound 0.1 µM) 112% and 106% and 103%; (compound 0.316 µM) 112% (2×) and 103%; (compound 1 µM) 109% and 106% (2×); (compound 3.16 µM) 120% and 117% and 108%; (compound 10 µM) 117% and 96.9% and 109%. Under “curve of compound”, the IC50 was > 10 µM.
As to `O=C(c1cc(Cc2n[nH]c(=O)c3ccccc23)ccc1F)N1CCN(C(=O)C2CC2)CC1`, the viability, T/C is 95.7% and 110% and 102% (compound 0.0316 µM); 101% and 105% and 113% (compound 0.1 µM); 103% (2×) and 97.1% (compound 0.316 µM); 92.9% and 102% and 112% (compound 1 µM); 102% and 101% and 109% (compound 3.16 µM); 96.3% and 110% and 106% (compound 10 µM). The IC50 (curve of compound) was > 10 µM.
In the case of `O=C(c1cc(Cc2n[nH]c(=O)c3ccccc23)ccc1F)N1CCN(C(=O)C2CC2)CC1` + CC(CO)NC(=O)c1cc(-c2ccc(Cl)cc2)nn(-c2cnn(C)c2)c1=O, the IC50 reads like this: under setting [1], > 10 µM; under setting [2], > 10 µM; under setting [3], > 10 µM; under setting [4], > 10 µM; under setting [5], > 10 µM. Besides, the viability, T/C is, setting by setting: (second compound 0.1 µM, first compound 0.0316 µM) 106%; (second compound 0.1 µM, first compound 0.1 µM) 100%; (second compound 0.1 µM, first compound 0.316 µM) 98.3%; (second compound 0.1 µM, first compound 1 µM) 103%; (second compound 0.1 µM, first compound 3.16 µM) 95.3%; (second compound 0.1 µM, first compound 10 µM) 101%. The viability, T/C (second compound 0.316 µM, first compound 0.0316 µM) is 86.3%; the viability, T/C (second compound 0.316 µM, first compound 0.1 µM) was 95.2%; the viability, T/C (second compound 0.316 µM, first compound 0.316 µM) was 91.8%; the viability, T/C (second compound 0.316 µM, first compound 1 µM) is 91.9%; the viability, T/C (second compound 0.316 µM, first compound 3.16 µM) was 91%; the viability, T/C (second compound 0.316 µM, first compound 10 µM) was 96.1%. In addition, the viability, T/C (second compound 1 µM, first compound 0.0316 µM) was 93.4%; the viability, T/C (second compound 1 µM, first compound 0.1 µM) is 96.3%; the viability, T/C (second compound 1 µM, first compound 0.316 µM) was 100%; the viability, T/C (second compound 1 µM, first compound 1 µM) is 93.1%; the viability, T/C (second compound 1 µM, first compound 3.16 µM) was 94.8%; the viability, T/C (second compound 1 µM, first compound 10 µM) is 97%. The viability, T/C reads like this: (second compound 3.16 µM, first compound 0.0316 µM) 93.6%; (second compound 3.16 µM, first compound 0.1 µM) 92.5%; (second compound 3.16 µM, first compound 0.316 µM) 99.4%; (second compound 3.16 µM, first compound 1 µM) 87.5%; (second compound 3.16 µM, first compound 3.16 µM) 96.4%; (second compound 3.16 µM, first compound 10 µM) 92.9%. In addition, the viability, T/C (second compound 10 µM, first compound 0.0316 µM) is 103%; the viability, T/C (second compound 10 µM, first compound 0.1 µM) is 109%; the viability, T/C (second compound 10 µM, first compound 0.316 µM) was 97.9%; the viability, T/C (second compound 10 µM, first compound 1 µM) was 96.7%; the viability, T/C (second compound 10 µM, first compound 3.16 µM) is 93.7%; the viability, T/C (second compound 10 µM, first compound 10 µM) is 105%.
In the case of `Nc1ccccc1NC(=O)c1ccc(CNC(=O)OCc2cccnc2)cc1`, the viability, T/C (compound 0.0316 µM) is 95% and 98.2% (2×); the viability, T/C (compound 0.1 µM) was 91.3% and 103% (2×); the viability, T/C (compound 0.316 µM) is 82.6% and 96.2% and 85.1%; the viability, T/C (compound 1 µM) is 75.5% and 87.3% and 72.5%; the viability, T/C (compound 3.16 µM) was 57.6% and 59% and 59.5%; the viability, T/C (compound 10 µM) was 45.6% and 37.9% and 39.1%. Besides, the IC50 (curve of compound) is 6.73 µM and 5.17 µM and 5.09 µM.
